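Test compounds were applied to cells in 96-well plates for 48 hours at 5 doses. At the TGI there is no net growth.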 A value given as a limit tells only on which side of the number the result lay.

Among the test systems are 786-0 renal; A549 NSCLC; CCRF-CEM leukemia; HCT-15 colon; HOP-62 NSCLC; HT29 colon; KM12 colon; NCI/ADR-RES ovarian; OVCAR-5 ovarian; SF-295 CNS; SK-MEL-5 melanoma; SK-OV-3 ovarian; SN12C renal; TK-10 renal; DU-145 prostate; SK-MEL-28 melanoma.
Holding throughout (assay): NCI-60 cell line screen, 48 h

With `CC(O)c1c2c(cc3c1CC1(C3)Cc3cc4c(c(C(C)O)c3C1)CCC4)CCC2` (configuration not stated), the TGI in the experiment with 786-0 renal came out at 28.9 µM; in the experiment with A549 NSCLC, 33.1 µM; with CCRF-CEM leukemia, 22.1 µM; in the experiment with HCT-15 colon it was 41.1 µM; in the experiment with HOP-62 NSCLC it was 38.8 µM; with HT29 colon, 28.3 µM. Besides, the TGI was 38.4 µM in the experiment on KM12 colon; 70.4 µM with NCI/ADR-RES ovarian; 50.2 µM in the experiment on OVCAR-5 ovarian; 45.2 µM with SF-295 CNS; 25.6 µM with SK-MEL-5 melanoma; 60.8 µM in the experiment on SK-OV-3 ovarian. The TGI in the experiment on SN12C renal amounted to 32 µM; in the experiment on TK-10 renal it was 69.7 µM.
Turning to `N=C(/C=C/c1ccc(-c2cn3cc(/C=C/C(=N)N4CCCC4)ccc3n2)cc1)N1CCCC1`, the TGI with 786-0 renal, with A549 NSCLC, in the experiment with DU-145 prostate, with HCT-15 colon, in the experiment with HOP-62 NSCLC and with KM12 colon was more than 100 µM throughout. Besides, the TGI in the experiment with NCI/ADR-RES ovarian, in the experiment with OVCAR-5 ovarian, in the experiment with SF-295 CNS, in the experiment with SK-MEL-28 melanoma, in the experiment with SK-MEL-5 melanoma and in the experiment with SK-OV-3 ovarian was more than 100 µM each time. Further, the TGI with SN12C renal and with TK-10 renal was more than 100 µM throughout.
`O=C1CC2CC=C[C@H]3c4cc5c(cc4C(=O)N1C23)OCO5` (some centres not stated): the TGI with 786-0 renal, in the experiment with A549 NSCLC, with CCRF-CEM leukemia, in the experiment with HCT-15 colon, with HOP-62 NSCLC and in the experiment on HT29 colon was more than 50 µM in each case. Moreover, the TGI in the experiment on KM12 colon, in the experiment on SF-295 CNS, with SK-MEL-28 melanoma, in the experiment on SK-OV-3 ovarian, in the experiment on SN12C renal and in the experiment with TK-10 renal was more than 50 µM in each case.
As for `O=C(O)C(CS)NCc1c2ccccc2[n+]([O-])c2ccccc12` (configuration not stated), the TGI with 786-0 renal is more than 100 µM; with A549 NSCLC, more than 100 µM; in the experiment on CCRF-CEM leukemia it was 80.8 µM; with HCT-15 colon, more than 100 µM; in the experiment with HOP-62 NSCLC, more than 100 µM; in the experiment on HT29 colon it was more than 100 µM. Besides, the TGI in the experiment with KM12 colon, with OVCAR-5 ovarian, with SF-295 CNS, in the experiment with SK-MEL-28 melanoma, in the experiment on SK-MEL-5 melanoma and in the experiment with SK-OV-3 ovarian was more than 100 µM throughout. The TGI with SN12C renal and with TK-10 renal was more than 100 µM each time.
Turning to `O=C(Cc1ccccc1)NN1C(=O)C(Cl)C1c1cccc(O)c1` (configuration not stated), the TGI with 786-0 renal worked out at 31.5 µM; with A549 NSCLC, 59.8 µM; with CCRF-CEM leukemia, 8.44 µM; in the experiment on HCT-15 colon, 42.7 µM; with HOP-62 NSCLC, 80.6 µM; in the experiment on HT29 colon, 31.1 µM. In addition, the TGI with OVCAR-5 ovarian was found to be 27.5 µM; in the experiment with SF-295 CNS, 40.4 µM; with SK-MEL-28 melanoma, 34.6 µM; with SK-OV-3 ovarian, 80.5 µM; with SN12C renal it was 33.4 µM; in the experiment with TK-10 renal, 34.1 µM.
Regarding `COc1cc(C2C(Cl)C(=O)N2n2cnc3ccccc3c2=O)cc(OC)c1OC` (configuration not stated), the TGI with 786-0 renal, in the experiment on A549 NSCLC, with CCRF-CEM leukemia, in the experiment on HCT-15 colon, in the experiment on HOP-62 NSCLC and in the experiment on HT29 colon was more than 100 µM throughout. For the same compound, the TGI with KM12 colon, in the experiment on OVCAR-5 ovarian, in the experiment on SF-295 CNS, with SK-MEL-28 melanoma, in the experiment with SK-MEL-5 melanoma and with SK-OV-3 ovarian was more than 100 µM each time. Moreover, the TGI in the experiment on SN12C renal and with TK-10 renal was more than 100 µM in each case.
Turning to `O=C1C(C(O)(C(F)(F)Cl)C(F)(F)Cl)CCC1C(O)(C(F)(F)Cl)C(F)(F)Cl` (configuration not stated), the TGI in the experiment on 786-0 renal, in the experiment on A549 NSCLC, in the experiment on DU-145 prostate, with HCT-15 colon, in the experiment with HOP-62 NSCLC and with HT29 colon was more than 10 µM throughout. Further, the TGI in the experiment with KM12 colon is more than 10 µM; in the experiment on NCI/ADR-RES ovarian it was more than 10 µM; in the experiment on OVCAR-5 ovarian, more than 10 µM; with SF-295 CNS, 5.99 µM; with SK-MEL-28 melanoma it was more than 10 µM; in the experiment on SK-MEL-5 melanoma it was more than 10 µM. Moreover, the TGI in the experiment on SK-OV-3 ovarian, in the experiment with SN12C renal and with TK-10 renal was more than 10 µM in each case.
Take `O=C1C=C(N2CCCC2)C=C(N2CCCC2)C1`: the TGI in the experiment with 786-0 renal, in the experiment on A549 NSCLC, with CCRF-CEM leukemia, with HCT-15 colon, with HOP-62 NSCLC and in the experiment with HT29 colon was more than 100 µM throughout. The TGI with KM12 colon, in the experiment on OVCAR-5 ovarian, in the experiment on SF-295 CNS, in the experiment with SK-MEL-28 melanoma, with SK-MEL-5 melanoma and in the experiment with SK-OV-3 ovarian was more than 100 µM in each case. The TGI with TK-10 renal was more than 100 µM.
`O=[N+]([O-])c1cccc(N=C2c3ccccc3CN2c2cccc([N+](=O)[O-])c2)c1`: the TGI with 786-0 renal, in the experiment on A549 NSCLC, in the experiment with DU-145 prostate, in the experiment with HCT-15 colon, in the experiment with HOP-62 NSCLC and in the experiment on HT29 colon was more than 100 µM throughout. The TGI in the experiment with KM12 colon, in the experiment with OVCAR-5 ovarian, in the experiment with SF-295 CNS, in the experiment with SK-MEL-28 melanoma, in the experiment on SK-MEL-5 melanoma and with SK-OV-3 ovarian was more than 100 µM in each case. Also, the TGI in the experiment with SN12C renal and in the experiment with TK-10 renal was more than 100 µM each time.
